# Source: patent US11192888B2, “Antibacterial compounds” (priority 2017, dated 2021)
# Like-named read-outs stand apart in the source and are kept apart here. *1 amine or outer side, *2 acyl side, *3 side chain or, on linkers, in order; H or OH if unused. Where a SMILES comes first, the peptide text is derived from it. [ ]: non-standard residue; d: D form. dAla(ψthiazole) = C[C@@H](N[*:1])c1nc(C(=O)[*:2])cs1; Trp(4-Br) = N[C@@H](Cc1c[nH]c2cccc(Br)c12)C(=O)O; Dha = C=C(N)C(=O)O; Sar = CNCC(=O)O
# Tests used:
# [1] = system: Enterobacter cloacae NCTC 13406
# [2] = system: Citrobacter koseri Clinical
# [3] = system: Strep. agalactiae; settings: 13 h
# [4] = system: clinical isolates and one wild-type strain of P. aeruginosa; experiment: Growth of P. aeruginosa clinical isolates and wild-type strain with compounds (FIG. 1); assay type: cell-based, Pseudomonas aeruginosa; settings: isolates W4, W14, W23, W46 and PAO1; MH media, 13 hours (FIG. 1)
# Description: FIGS. 1a and 1b are graphs showing the effects of varying concentrations of compounds 2 and 3 according to the invention on the growth of different strains of P. aeruginosa in Müller-Hinton (MH) media, after 13 hours.
# The antibacterial activity of compounds 2 and 3 were tested against clinical isolates and one wild-type strain of P. aeruginosa displaying varying antibiotic sensitivity.
# The antibacterial activity of compounds 2 and 3 were tested against these clinical isolates and one wild-type strain of P. aeruginosa.
# [5] = system: Lactobacillus rhamnosus ATCC 53103
# [6] = system: Pseudomonas aeruginosa NCTC 13437
# [7] = system: Bacteroides fragilis ATCC 25285; settings: ATCC 25285
# [8] = system: Corynebacterium urealyticum NCTC 12011
# [9] = system: Pseudomonas aeruginosa ATCC 27853
# [10] = system: B. cepasia ATCC25416; experiment: Growth of Burkholderia with compound (FIG. 3), B. cepasia; assay type: cell-based; settings: FIG. 3, LB broth, 17 hours
# Description: (§1) FIG. 3 is a graph showing the effect of varying concentrations of compound 3 according to the invention on the growth of Burkholderia in Lysogeny broth (LB broth) after 17 hours.
# (§2) Compound 3 was tested to determine its antibacterial activity against B. multivorans, B. cepasia and B. vietnamiensis.
# [11] = system: Actinomyces viscosus DSM 43327
# [12] = system: Enterococcus faecalis ATCC 29212
# [13] = system: Clostridium difficile ATCC 43255; experiment: CLSI MIC, representative gut bacteria; assay type: cell-based; settings: Clostridium difficile ATCC 43255
# Description: (§3) Comparative in vitro bacterial susceptibility to compounds 3, 9 and 10, vancomycin and metronidazole was determined using methods according to the Clinical and Laboratory Standard Institute (CLSI) approved guidelines (M7-A10, M11-A7 or M45-A2) for anaerobic and aerobic organisms.
# [14] = system: Clostridium sordellii ATCC 9714; experiment: CLSI MIC, representative gut bacteria; assay type: cell-based
# Description: as §3
# [15] = system: Escherichia coli ATCC 25922
# [16] = system: Clostridium difficile 630Δerm; settings: 13 h
# [17] = system: Strep. pyogenes; settings: 13 h
# [18] = system: Staphylococcus aureus ATCC 29213
# [19] = system: Propionibacterium acnes ATCC 6919
# [20] = system: Clostridium innocuum DSM 1286
# [21] = system: Bifidobacterium bifidum ATCC 11863
# [22] = system: Clostridium ramosum DSM 1402
# [23] = system: B. vietnamiensis J2863; experiment: Growth of Burkholderia with compound (FIG. 3), B. vietnamiensis; assay type: cell-based; settings: FIG. 3, LB broth, 17 hours
# Description: as §1, §2
# [24] = system: B. multivorans ATCC17616
# [25] = system: Bifidobacterium breve ATCC 15700
# [26] = Description: In this study, a single oral dose of compound 3 in 0.5% w/v aqueous methylcellulose at 5 mg/kg was administered to nine mice in a 10 mL/kg dosing volume and housed in metabolism cages. Following administration of the compound, serial blood samples of 50 μL was taken from the lateral tail vein at each of 7 post-dosing time-points (0.25, 0.5, 1, 2, 4, 7 and 24 h). Whole blood samples were then diluted 1:1 with water and two 40 μL aliquots were pipetted into duplicate 96 well plate tubes. At the end of 24 h, all faecal samples were collected and pooled. A quantitative bioanalysis by LC-MS/MS of the blood and faecal levels of compound 3 was carried out to determine the oral absorbability and gastrointestinal metabolic stability of compound 3.
# To evaluate the metabolic stability of orally administered compound 3, metabolite profiling of the faecal sample was performed.
# [27] = system: P. aeruginosa PAO1; settings: PAO1, 13 h
# [28] = system: Enterococcus faecium NCTC 12204
# [29] = system: Proteus mirabilis DSM 30116
# [30] = system: Clostridium perfringens NCTC 8237
# [31] = system: Corynebacterium jeikeium NCTC 11914
# [32] = system: Corynebacterium striatium NCTC 764
# [33] = system: Corynebacterium urealyticum NCTC 12011; experiment: microbe, parasite or virus in culture; settings: NCTC12011
# [34] = system: C. difficile ATCC 43255 (aka VPI 10463; ribotype 087); experiment: Mouse model of C. difficile-associated disease; assay type: in vivo, C57BL/6 mice
# [35] = system: Enterococcus faecalis ATCC 29212; experiment: microbe, parasite or virus in culture; settings: ATCC29212
# [36] = system: Staphylococcus aureus ATCC 29213; experiment: microbe, parasite or virus in culture; settings: ATCC29213
# [37] = system: Corynebacterium jeikeium NCTC 11914; experiment: microbe, parasite or virus in culture; settings: NCTC11914
# [38] = system: Clostridium difficile strains (21 clinical, 7 reference); experiment: microbe, parasite or virus in culture; settings: Clostridioides difficile
# [39] = system: Enterococcus faecium NCTC 12204; experiment: microbe, parasite or virus in culture; settings: NCTC12204
# [40] = system: Corynebacterium striatium NCTC 764; experiment: microbe, parasite or virus in culture; settings: NCTC764
# [41] = system: Lactobacillus rhamnosus ATCC 53103; experiment: microbe, parasite or virus in culture; settings: Lacticaseibacillus rhamnosus, ATCC53103
# [42] = system: Clostridium difficile strains (21 clinical, 7 reference)
smiles,measurement,setting,value
"C=C1NC(=O)[C@@H](C)NC(=O)CNC(=O)[C@H](Cc2c[nH]c3cccc(Br)c23)NC(=O)[C@H](Cc2c[nH]c3ccccc23)NC(=O)c2csc(n2)[C@@H](C)NC(=O)CN(C)C1=O [Compound 3, Cyclo[D-Ala-Thz-Trp-Trp(4-Br)-Gly-D-Ala-Dha-Sar]] (cyclo([Dha][Sar][dAla(ψthiazole)]W[Trp(4-Br)]G[dA]))",MIC,[1],>64 µg/mL
same,MIC,[2],>64 µg/mL
same,IC50,[3],> 100 µM
same,susceptibility of the isolates to the compound,[4],equally susceptible
same,MIC,[5],>64 µg/mL
same,MIC,[6],>64 µg/mL
same,MIC,[7],>64 µg/mL
same,MIC,[8],>64 µg/mL
same,MIC,[9],>64 µg/mL
same,antibacterial activity (growth decrease),[10],highly active
same,MIC,[11],64 µg/mL
same,MIC,[12],>64 µg/mL
same,MIC,[13],1.0 µg/mL
same,MIC,[14],32 µg/mL
same,MIC,[15],>64 µg/mL
same,IC50,[16],130 ± 20 nM
same,IC50,[17],> 100 µM
same,MIC,[18],>64 µg/mL
same,MIC,[19],>64 µg/mL
same,MIC,[20],>64 µg/mL
same,MIC,[21],>64 µg/mL
same,MIC,[22],>64 µg/mL
same,antibacterial activity (growth decrease),[23],highly active
same,IC50,"[24]; ATCC17616, 25 h",1600 ± 1400 nM
same,antibacterial activity (growth decrease),"[24]; FIG. 3, LB broth, 17 hours",highly active
same,MIC,[25],>64 µg/mL
same,share of the mass of compounds detected in pooled faecal sample that corresponds to the compound,"[26]; LC-MS metabolite profiling, above control sample",85%
same,compound recovered from pooled faeces,"[26]; oral 5 mg/kg, mice, 24 h",63%
same,systemic exposure (blood),"[26]; single oral dose 5 mg/kg, mice, over 24 h",undetectable
same,IC50,[27],13.2 ± 3.2 µM
same,% Growth inhibition at 100 μM,[27]; 100,85.7 ± 0.6%
same,MIC,[28],>64 µg/mL
same,MIC,[29],>64 µg/mL
same,MIC,[30],>64 µg/mL
same,MIC,[31],>64 µg/mL
same,MIC,[32],>64 µg/mL
"CN[C@H](CC(C)C)C(=O)N[C@H]1C(=O)N[C@@H](CC(N)=O)C(=O)N[C@H]2C(=O)N[C@H]3C(=O)N[C@H](C(=O)N[C@H](C(=O)O)c4cc(O)cc(O)c4-c4cc3ccc4O)[C@H](O)c3ccc(c(Cl)c3)Oc3cc2cc(c3O[C@@H]2O[C@H](CO)[C@@H](O)[C@H](O)[C@H]2O[C@H]2C[C@](C)(N)[C@H](O)[C@H](C)O2)Oc2ccc(cc2Cl)[C@H]1O [Vancomycin, reference compound]",MIC,[33],1 µg/mL
same,survival to the end of the study at day-21 post-infection,[34]; 10 mg/kg,survived to the end of the study
same,Mean survival,[34]; 10 mg/kg oral BD for 5 days,504.00 h
same,MIC,[35],2 µg/mL
same,MIC,[36],1 µg/mL
same,MIC,[37],1 µg/mL
same,MIC,[38],0.5 µg/mL
same,MIC50,[38],0.5 µg/mL
same,MIC90,[38],0.5 µg/mL
same,MIC,[38]; ATCC9689,0.5 µg/mL
same,MIC,[38]; ATCC13366,0.5 µg/mL
same,MIC,[38]; ATCC43255,0.5 µg/mL
same,MIC,[38]; ATCC700057,0.5 µg/mL
same,MIC,[38]; BAA1875,0.5 µg/mL
same,MIC,[38]; read-out: MIC40,0.5 µg/mL
same,MIC,[39],> 64 µg/mL
same,MIC,[40],0.5 µg/mL
same,MIC,[41],> 64 µg/mL
same,MIC50,[42]; 28 C. difficile strains,0.5 µg/mL
same,MIC90,[42]; 28 C. difficile strains,0.5 µg/mL
same,MIC,[42]; C. difficile strain 630 (ribotype 012),0.5 µg/mL
same,MIC,[42]; C. difficile strain BI1-FDX^R,0.5 µg/mL
same,MIC,[42]; C. difficile strain Clin. 1,0.5 µg/mL
same,MIC,[42]; C. difficile strain Clin. 2,0.5 µg/mL
same,MIC,[42]; C. difficile strain Clin. 3,0.5 µg/mL
same,MIC,[42]; C. difficile strain Clin. 6,0.5 µg/mL
same,MIC,[42]; C. difficile strain Clin. 7,0.5 µg/mL
same,MIC,[42]; C. difficile strain Clin. 8,0.5 µg/mL
same,MIC,[42]; C. difficile strain Clin. 9,0.5 µg/mL
same,MIC,[42]; C. difficile strain Clin. 10,0.5 µg/mL
same,MIC,[42]; C. difficile strain Clin. 11,0.5 µg/mL
same,MIC,[42]; C. difficile strain Clin. 12,0.5 µg/mL
same,MIC,[42]; C. difficile strain Clin. 13,0.5 µg/mL
same,MIC,[42]; C. difficile strain Clin. 14,0.5 µg/mL
same,MIC,[42]; C. difficile strain Clin. 15,0.5 µg/mL
same,MIC,[42]; C. difficile strain Clin. 16,0.5 µg/mL
same,MIC,[42]; C. difficile strain Clin. 18,0.5 µg/mL
same,MIC,[42]; C. difficile strain Clin. 20,0.5 µg/mL
same,MIC,[42]; C. difficile strain Clin. 21,0.5 µg/mL
same,MIC,[42]; C. difficile strain Clin. 22,0.5 µg/mL
same,MIC,[42]; C. difficile strain Clin. 23,0.5 µg/mL
same,MIC,[42]; C. difficile strain Clin. 24,0.5 µg/mL
